{"source": "patent US12472221B2", "about": "“Composition for inhibiting osteoclasts containing agastache rugosa extract as active ingredient, and use thereof” (Korea Institute of Oriental Medicine, priority 2019, dated 2025)", "key": {"[1]": {"tested_on": "differentiation of bone marrow cell-derived macrophages (BMMs) into osteoclasts", "test": "Osteoclast differentiation of bone marrow cell-derived macrophages (M-CSF/RANKL, TRAP staining, osteoclast count)", "assay_type": "cell-based, mice", "conditions": "compared with WEAR at the same concentration", "experimental": "Specifically, bone marrow cells of mice were cultured in α-MEM medium containing M-CSF (60 ng/ml) and 10% FBS for 3 days to obtain bone marrow cell-derived macrophages (BMMs), which were used as osteoclast progenitor cells. To generate osteoclasts, 1×10^4 pieces of the obtained BMMs were placed in per well of a 96-well plate, cultured for 4 days in a medium containing M-CSF (60 ng/ml) and RANKL (50 ng/ml), and the BMM were treated with hot water extract of Agastache rugosa (WEAR; 10, 33, 100, 200 μg/ml) or ethanol extract of Agastache rugosa (EEAR; 10, 33, 100 μg/ml) under the same culture condition. After fixing the cells with 10% formalin, TRAP (Tartrate-resistant acid phosphatase) staining was performed using naphthol AS-MS phosphate and Fast red violet LB salt, and TRAP-positive cells having three or more nuclei (osteoclasts) were counted. Data are presented as mean±standard deviation, and statistical analysis was performed using one-way ANOVA with Dunnett test, **p<0.01.\nIC50 (inhibitory concentration 50), the concentration showing 50% inhibition efficiency, was calculated using PraphPad Prism software.\nSpecifically, WEAR-PO, WEAR-ED, P0-3 kDA Fx, P0-10 kDA Fx, P0-30 kDA Fx, P0-100 kDA Fx, P0-300 kDA Fx […], respectively, and the osteoclast differentiation inhibitory effect was assessed in the same manner as in Example <3-1>."}, "[2]": {"tested_on": "bone marrow cell-derived macrophages (BMMs)", "test": "Cell viability of osteoclast progenitor cells (CCK-8)", "assay_type": "cell-based, mice", "conditions": "5 and 10 μg/ml, 2 days", "experimental": "Specifically, 1.2×10^4 pieces of bone marrow cell-derived macrophages (BMMs) were placed in per well of a 96-well plate, and then cultured for 2 days in a medium containing M-CSF (60 ng/ […] ) in which hot water extract of Agastache rugosa extract (WEAR; 5, 10, 20, 33, 100 and 200 μg/ml), ethanol extract of Agastache rugosa (EEAR; 10, 33 and 100 μg/ml) or isoagastachoside (5 and 10 μg/ml) samples were added. Cell viability was determined by measuring absorbance at 450 nm using Cell counting Kit-8 (CCK-8, Dojindo Inc.), percentage of untreated controls and data are presented as mean±standard deviation, and statistical analysis was performed using one-way ANOVA with Dunnett test, **p<0.01."}}, "data": [{"compound": "COc1ccc(-c2cc(=O)c3c(O)cc(O[C@@H]4O[C@H](CO)[C@@H](O)[C@H](O)[C@H]4OC(C)=O)cc3o2)cc1", "note": "[isoagastachoside]", "values": [{"measurement": "inhibitory effect on osteoclast differentiation (in words)", "setting": "[1]; 10 μg/ml", "value": "inhibited osteoclast differentiation very significantly compared to WEAR at the same concentration"}, {"measurement": "inhibitory effect on osteoclast differentiation (in words)", "setting": "[1]; 5 and 10 μg/ml", "value": "better inhibitory effect on osteoclast differentiation than WEAR at the same concentration"}, {"measurement": "effect on cell survival", "setting": "[2]", "value": "no effect in cell survival"}]}]}
